Consider one compound from article PMC9574860, “Chemical Toolkit for PARK7: Potent, Selective, and High-Throughput” (Journal of Medicinal Chemistry, 2022).

“Also recorded” adds a separate entry of the source.

Experiment [1] has as its target T1, UCHL1 (Homo sapiens, UniProt P09936).
T1 sequence (P09936 1-223): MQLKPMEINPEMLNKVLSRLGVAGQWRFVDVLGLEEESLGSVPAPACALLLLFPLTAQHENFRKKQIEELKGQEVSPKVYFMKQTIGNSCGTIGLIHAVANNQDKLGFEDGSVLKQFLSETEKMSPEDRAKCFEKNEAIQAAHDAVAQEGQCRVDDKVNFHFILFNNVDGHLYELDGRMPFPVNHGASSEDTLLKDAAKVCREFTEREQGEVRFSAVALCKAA
Description: Gel-based competition assay with probe 8RK59, UCHL1 band. It counts as biochemical.

Experiment [2] has as its system DUBs. The experiment is described as follows: DUB activity profiling in HEK293T cell lysate with general DUB probe Rho-Ub-PA. It counts as biochemical. Conditions: compound 5 μM 1 h 37 °C, then Rho-Ub-PA 30 min, Figure S5. How it is done: Due to the structural similarity of PARK7 inhibitor JYQ-88 and UCHL1 inhibitor 8RK64 and the fact that many cyanimide-containing compounds have been identified as DUB inhibitors,[35],[37] we investigated the inhibitory potential of JYQ-88 and JYQ-92 toward DUBs. After treating the HEK293T cell lysate with JYQ-88 and JYQ-92, along with UCHL1 inhibitors, 6RK73 and 8RK64 as controls,[38] the remaining activity of DUBs was determined using the general DUB probe Rho-Ub-PA (Figure S5).[39]
Figure S5. Fluorescence labeling of DUBs to investigate their remaining activity by Rh-Ub-
PA after the treatment with PARK7 inhibitor JYQ-88 and probe JYQ-92. UCHL1 inhibitors,
6RK73 and 8RK64, were used as a control. HEK293T cell lysate was treated with 5 μM final
MOPS SDS running buffer (Novex, NuPAGE) and visualized by fluorescence scanning on a
Typhoon FLA 9500 (GE Healthcare Life Sciences) using a Rhodamine channel (λex/em
(1 picture or pasted object on this page, not shown here)

Experiment [3] deals with T2, PARK7 (Homo sapiens, UniProt Q99497).
T2 sequence (Q99497 1-189): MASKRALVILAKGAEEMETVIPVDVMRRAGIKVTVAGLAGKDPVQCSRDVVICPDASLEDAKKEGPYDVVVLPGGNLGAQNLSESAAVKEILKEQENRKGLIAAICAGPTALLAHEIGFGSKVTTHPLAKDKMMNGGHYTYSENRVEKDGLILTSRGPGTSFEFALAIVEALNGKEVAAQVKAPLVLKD
Description: FP assay with Rhodamine110 probe JYQ-107 (IC50 and hit validation). On the set-up: GST (N, cleaved yes); made in house; host or cells: E. coli BL21(DE3) Rosetta2. In kind it is binding. Conditions: PARK7 0.2 μM, 1 h preincubation, JYQ-107 20 nM.

Experiment [4] has as its target T2, PARK7. The experiment is described as follows: Gel-based competition assay in HEK293T cell lysate with probe JYQ-92. Details: GST (N, cleaved yes); made in house; host or cells: E. coli BL21(DE3) Rosetta2. It counts as biochemical. The conditions noted are these: inhibitor 1 h 37 °C, then JYQ-92 1 μM 30 min, Figure 4E. An excerpt: We next assessed whether we could measure the inhibitory activity of an inhibitor against PARK7 in a cell lysate using JYQ-92 to label the remaining activity of PARK7. […] The disappearance of the labeling band is a measure for inhibition.

As to `N#CN1CC[C@@H](C(=O)Nc2nc3c(s2)CN(C(=O)CN=[N+]=[N-])CC3)C1` [JYQ-88, (R)-N-(5-(2-Azidoacetyl)-4,5,6,7-tetrahydrothiazolo[5,4-c]pyridin-2-yl)-1-cyanopyrrolidine-3carboxamide], the “Inhibition of UCHL1 (disappearance of 8RK59-labeled band)” value in experiment [1] (compound 2 μM, 1 h, PARK7 and UCHL1 1 μM each, then 8RK59 2 μM 30 min, Figure 3B) is “without inhibiting”. The “Concentration at which inhibition of UCHL1 was detected” value in experiment [1] (direct competition, equal amounts of PARK7 and UCHL1, Figure 3F) stood at 20 µM. For the same compound, the “Effect on remaining DUB activity (Rho-Ub-PA labeled bands)” value in experiment [2] is “no influence on DUB activity; also recorded: without showing any effect”. In addition, in experiment [3], the IC50 (as a rule, the concentration that inhibits the measured activity by half) worked out at 240 nM. Also, in experiment [4], the “Inhibitor concentration at which the PARK7 labeling band intensity is already decreased” value turned out to be 0.1 µM and the “Inhibitor concentration from which the PARK7 labeling band has nearly disappeared” value worked out at 1 µM.
